Where two headings read alike, the source gives them in different places.
Key:
[1] = test system: HT-29 cells; experiment: HT-29 necroptosis assay; type: cell-based, human; details: TNF-α + AT-406 + zVAD-FMK, 16–20 h, read-out: HT29-Necroptosis (IC50) (converted)
Protocol: The efficacies of RIP1 inhibitors were tested in vitro using HT-29 cells and L929 cells in a necroptosis assay. For HT-29 necroptosis assay, frozen HT-29 cells were thawed and diluted to 1.5 × 10^5 cells ml^−1 in McCoy’s 5 A Medium (16600108, Invitrogen) supplemented with 10% FBS, 100 U ml^−1 penicillin, and 100 μg ml^−1 streptomycin. A 20 μl aliquot of cell suspension was added to each well of a 384-assay plate and the cell culture plates were incubated for 16–20 h at 37 °C, 5% CO2. After overnight incubation, 2.5 μl of inhibitor dissolved in culture medium was added to each well of the cell plates, and then each well was treated with 2.5 μl of necroptosis inducer containing […], AT-406, and zVAD-FMK solution at final concentrations of 200 ng ml^−1, 10 μM, and 200 μM, respectively. Lidded plates were incubated for 16–20 h at 37 °C, 5% CO2. The next day, the supernatant of culture medium in each well was evaluated with CytoTox 96 Non-Radioactive Cytotoxicity Assay (G1780, Promega) according to the manufacturer’s instructions. The absorbance of the test plate was measured by 2103 EnVision Multilabel plate reader.
A, no necroptosis inducer; B, necroptosis inducer; X, necroptosis inducer plus test inhibitor. IC50 values were calculated with XLfit software (IDBS) using a four-parameter logistic curve.

[2] = test system: L929 cells; experiment: L929 necroptosis assay; type: cell-based; details: mouse TNFα + Z-VAD-FMK, 4 h
Protocol: For mouse L929 necroptosis assay, L929 cells were seeded to a 96-assay plate at 3.0 × 10^4 cells/120 μl in RPMI1640 medium (189–02025, WAKO) supplemented with 10% FBS, 100 U ml^−1 penicillin, and 100 μg ml^−1 streptomycin and the cells were cultured for 16–20 h at 37 °C, 5% CO2. After overnight incubation, the cells were treated with 15 μl of inhibitor containing media followed by the treatment with 15 μl of necroptosis inducer containing mouse TNFα and Z-VAD-FMK at final concentration of 20 ng ml^−1 and 20 μM, respectively, and incubated for 4 h. The cytotoxicity assay was conducted in the same way as the HT-29 necroptosis assay.

[3] = test system: phospho (Ser-345)-MLKL; experiment: Mouse phospho (Ser-345)-MLKL ELISA assay in L929 cells; type: cell-based; details: read-out: L929-pMLKL (IC50)
Protocol: (§1) estimated using a four-parameter logistic curve using GraphPad Prism 6.01 software (GraphPad Software Inc., La J olla, CA, USA). All of the data are shown as mean ± SEM.
Mouse phospho-MLKL ELISA assay. Phospho- MLKL in L929 cells were detected b y gen eral sandwich E LISA . L929 cell l ysat es stimulated with necroptosis inducer wer e pr epar ed in the same manner as for the in vitro necroptosis assay. The protein content of each cell l ysates was adjusted to 2 00–300 µg m l –1 to be normalised. Then 100 µl of normalised samples were added onto 96-well ELIS A pl ates (442404, Nunc) whi ch had been coated with 100 µl of anti-mouse MLKL Ab (1 µg ml –1 in PBS) overnight at 4°C, and incubated for 1h at room temperatur e. Nex t, plates were incub ated with 100 µl of anti- phospho- M LKL Ab (1 µg m l –1 in PBS supplemented with 1% BSA and 0.05% Tween20) for 1h at room temperature. Then, plates were reacted with 100 µl of anti-rabbit IgG HRP for 1h followed b y detection with 100 µl of TM B. After stopping the reaction b y adding 100 µl of 0.5 M H2SO4, plates wer e r ead on a spectrophotometer, Viento® (DS Pharma Biomedical) at A450.

[4] = test system: MLKL phosphorylation (p-MLKL); experiment: Immunoblot of MLKL phosphorylation in isolated CD11b+Ly-6G- monocytes; type: cell-based, mouse; details: isolated CD11b+Ly-6G- monocyte cells
Protocol: reaction. […] An excitation filter of
Inhibition rate was ex pressed as percent
(%) inhibition of internal assay controls. Percentage inhibition was calculated from the signal […]
For concentration response
(IDBS) using a four-parameter logistic curve. The value of Ki (the inhibitory constant) was […]
In vitro and ex vivo whole blood necroptosis assay. For the isolation of mouse monoc yte […]
density centrifugation over Ficoll-Paque Plus (GE Healthcare). Then, CD11b+/ Ly -6G- […]
manufacturer ’s recommendation. […]
treatment (no stimulation, TSZ stimulation with DMSO control, and TSZ stimulation with […] Nec- 1). As a result, the monocyte and neutrophil fraction was decreased, in which fractions onl y the monocyte fraction was restored by the treatment of RIPK1 inhibitor. (b) Monocyte cell number was counted as CD11b+/Ly-6G- population by FACS staining for further confirmation, since CD11b+ fraction contains Ly-6G+ neutrophil population. The left-hand graph indicates the CD11b+Ly-6G- monocyt e population which was calculated from flow c ytometr y analysis. Representative plots are indicated in the right- hand panels in which CD11b+/ Ly-6G- population are shown as blue dots. Significant reduction in monocyte […]
25 treatment. (c) C D 1 1 b + Ly -6G- monoc yte cells were isolated as des cribed in Supplementary Fi g. 4b and anal ysed b y i mmunoblotting using the indicated antibodies. […]

[5] = test system: CD11b+/Ly-6G- monocytes in mouse whole blood; experiment: In vitro whole blood necroptosis assay (monocyte cell death); type: cell-based; details: for restoration of monocyte number/fraction after TSZ stimulation: FACS
Protocol: For in vitro whole blood assa y, 40 µl of peripheral blood were added to each well of the 96-well plate containing 12 µl of the appropriate concentration of inhibitors and 56 µl of RPMI1640 medium supplemented with 100 U ml –1 penicillin and 100 µ g ml–1 streptom ycin.
After 30 min inhibitor incubation, 12 µ l of mixture of necroptosis inducer including mouse TNF-α, AT -406, and zVAD-FMK was added to each well (final concentrations of 10 ng ml–1, 1 µM, and 20 µM, respectively), and then the cells were incubated for 16–20 h at 37°C with 5% CO2. After overnight incubation, cultured blood cells were mixed with Mouse BD Fc Block™ (553142, BD Biosciences) to block Fc receptor followed by the reaction with appropriate antibodies for 30 min on ice. Then, red blood cells were eliminated b y adding 1x lysing buffer (555899, BD Biosciences) and the cells were washed once with PBS supplemented with 1% FBS. Cells were anal ysed on an SORP LSRII Fortessa or a SORP FA C S C anto II flow c ytometer (BD Biosciences).
For ex vivo experiments, 40 µl of peripheral blood was mixed with 68 µl of RPMI1640 and resulting 108 µ l of diluted blood were added to each well of a 96- assa y pl ate with 12 µ l of mixture of necroptosis inducer mentioned above, and then the cells were incubated for 16–20 h at 37°C with 5% CO 2. The next day, the cells were collected and monocyte population was anal ysed b y flow cytometry following the procedure described above. Percentage inhibition was calculated from the signal intensity of FACS anal ysis b y
as §1

[6] = target: T1, human RIPK1 (Homo sapiens, UniProt Q13546); experiment: CETSA (Tagg curves and ITDRF) for human RIPK1 with HT-29 cells; type: cell-based; details: compound 30 min, 47 °C for 8 min denature, independent runs reported, read-out: human_ITDRF-CETSA (EC50)
T1 construct: ITDRF values of half-maximal stabilization of endogenous RIPK1; endogenous in cells; host or cells: HT-29
T1 sequence (Q13546 1-671): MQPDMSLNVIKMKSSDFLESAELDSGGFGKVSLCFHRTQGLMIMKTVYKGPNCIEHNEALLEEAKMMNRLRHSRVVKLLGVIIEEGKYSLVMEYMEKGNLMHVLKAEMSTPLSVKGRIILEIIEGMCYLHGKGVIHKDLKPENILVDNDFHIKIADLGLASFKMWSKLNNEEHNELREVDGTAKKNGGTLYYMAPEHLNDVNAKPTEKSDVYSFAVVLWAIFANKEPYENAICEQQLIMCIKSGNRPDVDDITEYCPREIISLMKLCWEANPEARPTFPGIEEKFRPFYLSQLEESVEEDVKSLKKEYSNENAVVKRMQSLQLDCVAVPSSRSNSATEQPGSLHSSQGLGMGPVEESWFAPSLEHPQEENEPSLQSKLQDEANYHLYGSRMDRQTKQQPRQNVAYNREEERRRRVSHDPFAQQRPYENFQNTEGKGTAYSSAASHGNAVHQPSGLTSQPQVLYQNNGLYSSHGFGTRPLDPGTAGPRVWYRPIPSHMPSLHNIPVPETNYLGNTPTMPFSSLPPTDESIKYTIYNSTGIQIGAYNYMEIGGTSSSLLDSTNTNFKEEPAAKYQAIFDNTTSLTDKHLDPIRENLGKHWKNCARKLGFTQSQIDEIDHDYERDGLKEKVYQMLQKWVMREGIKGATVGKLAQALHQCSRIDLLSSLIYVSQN
Protocol: HT-29 and L929 cells were harvested and suspended with culture media containing 10% FBS to a cell density of 2 × 10^6 cells ml^−1. Mouse peripheral blood was collected from C57BL/6 J (female, 10-week-old, Charles River Japan) and PBMCs were isolated by density centrifugation over Lympholyte®-Mammal Cell Separation Media, Mammalian (CL5110, Cedarlane Laboratories) according to manual instructions. Briefly, approximately 500 μl of blood was carefully overlaid on 250 μl of the separation media so as not to disturb the layer. The samples were immediately spun at 800 g for 20 min at room temperature. After centrifugation, the buffy coat containing the PBMCs was collected with almost 350 μl of plasma to a cell density of approximately 1 × 10^6 cells ml^−1. […]
For the in-cell thermal aggregation curve experiments, the compound solution was mixed with 9-fold volume of the suspension of cells at approximately 2 × 10^6 cells ml^−1 and the cells were incubated for 30 min at 37 °C, 5% CO2. […] Both whole and supernatant samples were analysed by sodium dodecyl sulfate polyacrylamide gel electrophoresis (SDS-PAGE) followed by Western blotting.
For the ITDRF in cell experiments, compounds were serially diluted to generate dose response curves. […] The heat-treated samples were treated as for the sample preparation and analysed with Western blotting following the procedure described above. […]

With `CN1C(=O)[C@@H](N2CCc3c(nn(Cc4ccccc4)c3Cl)C2=O)COc2ccccc21` [Compound 18, (3S)-3-(2-benzyl-3-chloro-7-oxo-2,4,5,7-tetrahydro-6H-pyrazolo[3,4-c]pyridin-6-yl)-5-methyl-2,3-dihydro-1,5-benzoxazepin-4(5H)-one] the IC50 [1] was 1.5 nM.

With `CNC(=O)c1ccc2c(c1)OC[C@H](N1CCc3c(nn(Cc4ccccc4)c3Cl)C1=O)C(=O)N2C` [Compound 23] the IC50 [2] was 15 nM, the IC50 ([1]; Homo sapiens) was 1.8 nM and the IC50 [3] was 16 nM.

`CN1C(=O)[C@@H](N2CCc3cn(Cc4ccccc4F)nc3C2=O)COc2cc(C#N)ccc21` [Compound 25] gave an IC50 [2] of 140 nM, an IC50 ([1]; Homo sapiens) of 8.2 nM and an IC50 [3] of 66 nM. For the same molecule, the “inhibition of TSZ-induced MLKL phosphorylation (p-MLKL)” value [4] was “completely inhibited”, the IC50 ([5]; TNF-α + AT-406 + zVAD-FMK, 16–20 h, monocyte population by FACS) was 1200 nM and the “restoration of monocyte number/fraction after TSZ stimulation” value [5] was “rescued”.

Work on `Nc1ncnc2occ(-c3ccc(NC(=O)Nc4cc(C(F)(F)F)ccc4F)cc3)c12` [GSK-compound 27, reference compound] yielded an IC50 ([1]; Homo sapiens) of 300 nM.

`CN1C(=O)C(Cc2c[nH]c3ccccc23)NC1=S` (centres unmarked) [Nec-1, Necrostatin-1, reference compound] was tested, and the EC50 [6] was 1100 nM, the IC50 ([1]; Homo sapiens) was 610 nM and the “restoration of monocyte number/fraction after TSZ stimulation” value [5] was “restored”.

From PMC5638916, “CETSA quantitatively verifies in vivo target engagement of novel RIPK1 inhibitors in various biospecimens” (Scientific Reports, 2017)
